Measured values: publication PMC9072872, “Structure-based design of nucleoside-derived analogues as sulfotransferase inhibitors” (RSC Advances, 2019)

What was measured:
TPST1 [1] = target: T1, TPST1 (Homo sapiens, UniProt O60507); assay: Immunoblot of GST-CC4tide tyrosine sulfation by TPST1 (anti-sulfotyrosine antibody); type: biochemical; conditions: compound 400 μM, GST-CC4-tide 1 μg, TPST1 0.2 μg, PAPS 5 μM, 15 min
T1 construct: Human TPST1 (residues Lys43-Leu360) enzyme was purified as a recombinant protein; made in house
T1 sequence (O60507 43-360): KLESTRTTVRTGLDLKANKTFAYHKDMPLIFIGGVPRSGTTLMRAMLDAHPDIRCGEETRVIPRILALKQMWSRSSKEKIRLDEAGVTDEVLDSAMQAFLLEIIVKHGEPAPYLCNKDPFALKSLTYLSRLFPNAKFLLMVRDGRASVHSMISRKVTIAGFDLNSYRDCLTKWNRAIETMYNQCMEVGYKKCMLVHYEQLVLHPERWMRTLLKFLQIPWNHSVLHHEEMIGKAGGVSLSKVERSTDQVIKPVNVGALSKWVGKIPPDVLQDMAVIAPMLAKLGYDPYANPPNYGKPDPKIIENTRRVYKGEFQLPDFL
Description: In order to further assess TPST1 inhibition by 2′-deoxy-PAP and compounds 1–14 using a complementary assay, immunoblotting of a TPST1 protein substrate (GST-CC4tide) was implemented with a monoclonal antibody that specifically recognises sulfotyrosine, using PAP as positive control (Fig. 5A). Compounds were screened at 400 μM in the assay. In common with the […] enzyme assay using a synthetic peptide, a broad range of inhibitory activities was observed.
Fig. 5 Immunological evaluation of TPST1 inhibition towards substrate and a Ser/Thr protein kinase counter-screen. (A) Immunoblots evaluating TPST1 sulfotransferase activity in the presence of a panel of PAP- and PAPS-mimetic compounds. […] After termination of the reaction using SDS-PAGE sample buffer, tyrosine sulfation was visualised by immunoblotting using a monoclonal sulfotyrosine antibody (top panel), with equal GST-CC4-tide and TPST1 loading confirmed using an antibody to detect 6xHis tagged proteins (bottom panel). (B) Enzymatic inhibition of PKA catalytic activity by a panel of PAP- and PAPS-mimetic compounds. PKA kinase (1 nM) was incubated with ATP (5 μM) in the presence of the appropriate nucleoside analogue (400 μM) for 30 min at 20 °C. PKA activity was calculated in real-time using fluorescently-labelled substrate peptide (2 μM) and normalised to DMSO (4% v/v) or buffer control.[77] Data in B is mean and SD of 3 individual experiments. Staurosporine is included at 40 μM as a generic inhibitor of kinase activity. […]
All standard laboratory biochemicals, were purchased from Sigma, and were of the highest analytical quality.
(§1) 5'-phosphosulfate, lithium salt hydrate, PAP (adenosine 3',5'-diphosphate, disodium salt), CoA (coenzymeA, sodium salt), ATP (adenosine 5’-triphosphate, disodium salt hydrate) were all purchased from Sigma and stored at -80 °C to minimise degradation.
(§2) Recombinant Protein Production and SDS-PAGE
(§3) Human TPST1 (residues Lys43-Leu360) enzyme was purified as a recombinant protein containing an N-terminal 6xHis tag as previously described. […]
pMAL-c2x plasmid encoding an N-terminal Maltose Binding Protein (MBP) affinity tag.6 Glutathione-S-transferase (GST) tagged CC4-tide ([…]) was cloned into pOPINJ (OPPF-UK) and […]
affinity purified from BL21 (DE3) pLysS E. coli using Glutathione-Sepharose 4B (GE Healthcare). 5 For SDS-PAGE, proteins were denatured in Laemmli sample buffer, heated at 95 °C for 5 min and then analysed by SDS-PAGE with 10% (v/v) polyacrylamide gels. Gels were stained and de-stained using a standard Coomassie Brilliant Blue protocol. To evaluate protein sulfation by immunoblotting, standard western blotting procedures were followed using monoclonal anti-sulfotyrosine ant ibody clone o-1C-A2 (Millipore) generated using a phage display procedure and sulfotyrosine selection peptide antigens7 in the presence of appropriate positive and negative controls, and modifications visua lised using ECL […]
Data was normalized […]
with respect to these control assays, with sulfate incorporation into the substr ate limited to ~ 20% to prevent depletion of PAPS and to ensure assay linearity. K m and IC50 values were determined by non-linear regression analysis with GraphPad Prism software. […]

TPST1 [2] = target: T1, TPST1; assay: Microfluidic mobility shift sulfation assay, TPST1 (fluorescent CC4-tide substrate); type: biochemical; conditions: for IC50: read-out: IC50 against TPST1
Description: (§4) Compounds were initially screened at 400 μM in the presence 20 nM HS2ST and 0.1 μM TPST1 respectively.
Fig. 4 Summary of enzymatic inhibition assays against HS2ST and TPST1. (A) Enzymatic analysis of HS2ST1 inhibition by a panel of PAP- and PAPS-mimetic compounds. […] HS2ST sulfotransferase activity was assayed using a fluorescent hexasaccharide substrate (2 μM) and normalised to DMSO (4% v/v) or buffer control. Data shown is mean and SD of 4 repeat experiments. (B) Full dose–response curves for selected compounds. […] HS2ST activity calculated as previously described. Data from two independent experiments are combined. (C) Enzymatic analysis of TPST1 inhibition by a panel of PAP- and PAPS-mimetic compounds. […] TPST1 activity was measured using fluorescently-labelled CC4-tide (2 μM) and normalised to DMSO (4% v/v) or buffer control. (D) Full dose–response curves for selected compounds. […] TPST1 activity was measured using CC4-tide and normalised to DMSO or buffer controls as previously described. The data shown is from duplicate experiments. […]
TPST1 peptide substrate (CC4-tide, 5-FAM-EDFED YEFDG-CONH2) was synthesised using solid-phase Fmoc chemistry (Pepceuticals, Leicester, UK). All standard laboratory biochemicals, were purchased from Sigma, and were of the highest analytical quality.
as §1, §2, §3
(§5) Microfluidics-Based Sulfation Assay
(§6) Non-radioactive microfluidic mobility shift peptide and carbohydrate sulfation assays were performed in solution with a 12-sipper chip coated with SR8 reagent and a Perkin Elmer EZ Reader II system 8 using an EDTA-based separation buffer and real-time kinetic evaluation of substrate sulfation. Pressure and voltage settings were adjusted manually to afford optimal separation of the sulfated product and non-sulfated substrate, with a sample (sip) volume of 20 nL, and total assay tim es appropriate for the experiment. The fluorophore tagged TPST1 peptide substrate and HS2ST1 glycan substrate where detected by the EZ Reader via LED-induced fluorescence.
(§7) Individual sulfation assays were assembled in a 384 well plate in a volume of 80 µL in the presence of […]
(§8) and 5 mM MgCl2. The degree of substrate sulfation was directly calculated using EZ Reader software by measuring the sulfo-product:non-sulfated substrate ratio at each time-point. The act ivity of the sulfotransferase enzymes in the presence of biochemicals and small molecule inhibitors was quantified in ‘kinetic mode’ by monitoring the amount of sulfated product generated over the assay time, relative to control assay with no additional inhibitor molecule (DMSO or buffer control). Data was normalized with respect to these control assays, with sulfate incorporation into the substr ate limited to ~ 20% to prevent depletion of PAPS and to ensure assay linearity. K m and IC50 values were determined by non-linear regression analysis with GraphPad Prism software. […]

HS2ST = target: T2, HS2ST (Gallus gallus, UniProt Q76KB1); assay: Microfluidic mobility shift sulfation assay, HS2ST (fluorescent hexasaccharide substrate); type: biochemical, chicken; conditions: read-out: IC50 against HS2ST
T2 construct: made in house; host or cells: E. coli Rosetta-gami (DE3)
T2 sequence (Q76KB1 1-356): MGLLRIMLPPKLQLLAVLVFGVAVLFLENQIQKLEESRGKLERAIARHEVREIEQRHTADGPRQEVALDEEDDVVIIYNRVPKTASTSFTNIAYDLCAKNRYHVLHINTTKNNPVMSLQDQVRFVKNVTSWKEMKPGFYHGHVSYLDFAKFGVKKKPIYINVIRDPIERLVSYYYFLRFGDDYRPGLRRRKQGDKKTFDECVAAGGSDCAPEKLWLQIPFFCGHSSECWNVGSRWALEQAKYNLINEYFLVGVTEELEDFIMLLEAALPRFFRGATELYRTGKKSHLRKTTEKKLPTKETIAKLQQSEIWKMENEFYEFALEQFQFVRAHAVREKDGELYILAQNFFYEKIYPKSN
Description: as §4
Fig. 4 Summary of enzymatic inhibition assays against HS2ST and TPST1. (A) Enzymatic analysis of HS2ST1 inhibition by a panel of PAP- and PAPS-mimetic compounds. […] HS2ST sulfotransferase activity was assayed using a fluorescent hexasaccharide substrate (2 μM) and normalised to DMSO (4% v/v) or buffer control. Data shown is mean and SD of 4 repeat experiments. (B) Full dose–response curves for selected compounds. […] HS2ST activity calculated as previously described. Data from two independent experiments are combined. (C) Enzymatic analysis of TPST1 inhibition by a panel of PAP- and PAPS-mimetic compounds. […] TPST1 activity was measured using fluorescently-labelled CC4-tide (2 μM) and normalised to DMSO (4% v/v) or buffer control. (D) Full dose–response curves for selected compounds. […] TPST1 activity was measured using CC4-tide and normalised to DMSO or buffer controls as previously described. The data shown is from duplicate experiments.
N-sulfated, fluorescein-tagged HS2ST1 hexasaccharide glycan substrate (GlcNS-GlcA- GlcNS-IdoA-GlcNS-GlcA-fluorescein, where S=sulfation) containing L-IdoA at the third residue from the reducing end (to which a linker and the fluorophore were conjugated) was purchased from GLY CAN therapeutics. TPST1 peptide substrate (CC4-tide, 5-FAM-EDFED YEFDG-CONH2) was synthesised using solid-phase Fmoc chemistry (Pepceuticals, Leicester, UK). All standard laboratory biochemicals, were purchased from Sigma, and were of the highest analytical quality.
as §1
Recombinant Protein Production and SDS-PAGE […]
as §5, §6, §7, §8

sulfotransferase = tested on: sulfotransferase; design: method as in PMID 29934491, PMID 29934490; conditions: non nucleoside-derived; cited from earlier work

Structure (SMILES) | suppression of tyrosine sulfation (immunoblot) (TPST1 [1]) | IC50 (TPST1 [2]) [µM] | IC50 (HS2ST) [µM] | also measured
Nc1ncnc2c1ncn2[C@H]1C[C@H](OCC(=O)NO)[C@@H](COCC(=O)NO)O1 [Compound 3] | partial suppression | – | – | –
COC(=O)COC1CC(n2cnc3c(N)ncnc32)OC1COP(=O)(O)O (stereo not drawn) [Compound 5] | complete suppression | 100 to 300 | – | –
COC(=O)COC1CC(n2cnc3c(N)ncnc32)OC1COP(=O)(O)OCc1ccccc1 (stereo not drawn) [Compound 6] | complete suppression | 100 to 300 | – | –
Nc1ncnc2c1ncn2[C@H]1C[C@H](O)[C@@H](Cn2cc(C(=O)O)nn2)O1 [Compound 7] | did not show any activity | – | – | inhibitory activity against TPST1 (TPST1 [2]; compound 400 μM, TPST1 0.1 μM, PAPS 5 μM): showed activity
Nc1ncnc2c1ncn2[C@H]1C[C@H](OP(=O)(O)O)[C@@H](Cn2cc(C(=O)O)nn2)O1 [Compound 8] | partial suppression | – | 100 to 300 | –
Nc1ncnc2c1ncn2[C@H]1C[C@H](O)[C@@H](Cn2cc(C(=O)OCc3ccccc3)nn2)O1 [Compound 9] | partial suppression | – | 100 to 300 | –
Nc1ncnc2c1ncn2[C@@H]1O[C@H](COP(=O)(O)O)[C@@H](OP(=O)(O)O)[C@H]1O [PAP, adenosine 3′,5′-diphosphate, reference compound] | – | 1.5 | 2 | –
CC(=O)c1c(O)c(C)c(O)c(Cc2c(O)c3c(c(C(=O)/C=C/c4ccccc4)c2O)OC(C)(C)C=C3)c1O [rottlerin] | – | – | – | sulfotransferase inhibitor potency (sulfotransferase): low/sub-micromolar
Cc1ccc(C(=O)Nc2ccc(S(=O)(=O)O)c3cc(S(=O)(=O)O)cc(S(=O)(=O)O)c23)cc1NC(=O)c1cccc(NC(=O)Nc2cccc(C(=O)Nc3cc(C(=O)Nc4ccc(S(=O)(=O)O)c5cc(S(=O)(=O)O)cc(S(=O)(=O)O)c45)ccc3C)c2)c1 [suramin] | – | – | – | sulfotransferase inhibitor potency (sulfotransferase): low/sub-micromolar
